Where two headings read alike, the source gives them in different places.
How the values were obtained:
[1] = tested on: MV4;11 cells; assay: Cell Titer-Glo cell growth inhibition in MV4;11 cell line (Day 5 / Day 10); type: cell-based
Summary of the method: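 Cells seeded at 3750/well and treated with a 10-point, 4-fold dose curve from 0 to 50 µM; ATP-based luminescence viability read at Day 5. A portion is reseeded into fresh compound and media for 5 more days, read at Day 10; IC50 derived from luminescence.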

[2] = target: LSD1 (Homo sapiens, UniProt O60341); assay: LSD1 fluorescence coupling enzyme assay (HRP/Amplex Red, H3(1-21)K4me2 peptide), 10-dose IC50; type: biochemical; details: 10 μM histone H3(1-21)K4me2 peptide substrate, 3-fold serial dilution from 100 μM
Summary of the method: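 Fluorescence coupled assay: LSD1 demethylation of 10 μM H3(1-21)K4me2 peptide produces FAD-dependent H2O2, detected via HRP/Amplex Red as resorufin (Ex/Em 535/590 nm). IC50 from 10 doses, 3-fold serial dilution from 100 μM, in duplicate.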

[3] = Homo sapiens, MV4-11, 120 h, Day 5, read-out: Cell Titer-Glo IC50 (5 d)
[4] = Homo sapiens, MV4-11, 240 h, Day 10, read-out: Cell Titer-Glo IC50 (10 d)

IC50 [1, 3] | IC50 [2] | IC50 [1, 4] | IC50 ([1]; Day 5, read-out: Cell Titer-Glo IC50 (5 d)) | IC50 ([1]; Day 10, read-out: Cell Titer-Glo IC50 (10 d)) | Compound | IC50 ([1]; Homo sapiens, 120 h, Day 5, read-out: Cell Titer-Glo IC50 (5 d)) | IC50 ([1]; Homo sapiens, 240 h, Day 10, read-out: Cell Titer-Glo IC50 (10 d))
1000 to 10000 nM | < 500 nM | – | – | – | CN[C@@H]1CCC[C@@H](CNc2cc(-c3ccc(C#N)c(F)c3)n(-c3ccc(OC)cc3)n2)C1 (single isomer, unassigned) [Example 33b] | – | –
1000 to 10000 nM | 1000 to 10000 nM | – | – | – | CN[C@@H]1CCCC(CNc2cc(-c3ccc(C#N)c(F)c3)n(-c3ccc(OC)cc3)n2)C1 (single isomer, unassigned) [Example 32b] | – | –
1000 to 10000 nM | < 500 nM | – | – | – | CN[C@H]1CCCC(CNc2cc(-c3ccc(C#N)c(F)c3)n(-c3ccc(OC)cc3)n2)C1 (single isomer, unassigned) [Example 32a] | – | –
1000 to 10000 nM | < 500 nM | < 500 nM | – | – | N#Cc1ccc(-c2cc(NC[C@H]3CCCNCC3)nn2-c2ccc(C(=O)N3CCCC3)cc2)cc1F (single isomer, unassigned) [Example 25b] | – | –
– | < 500 nM | – | 500 to 1000 nM | < 500 nM | COc1ccc(-n2nc(NCC3CCCNCC3)cc2-c2ccc(C#N)c(F)c2)cc1 (single isomer, unassigned) [Example 22b, 4-(3-((azepan-4-ylmethyl)amino)-1-(4-methoxyphenyl)-1H-pyrazol-5-yl)-2-fluorobenzonitrile] | – | –
1000 to 10000 nM | 500 to 1000 nM | – | – | – | COc1ccc(-n2nc(NC[C@@H]3CCC[C@@H](N)C3)cc2-c2ccc(C#N)c(F)c2)cc1 [Example 11RR, 4-(3-((((1R,3R)-3-aminocyclohexyl)methyl)amino)-1-(4-methoxyphenyl)-1H-pyrazol-5-yl)-2-fluorobenzonitrile] | – | –

Second part, the compound before the results:

Compound | IC50 [1, 3] | IC50 [2] | IC50 [1, 4] | IC50 ([1]; Day 5, read-out: Cell Titer-Glo IC50 (5 d)) | IC50 ([1]; Day 10, read-out: Cell Titer-Glo IC50 (10 d)) | IC50 ([1]; Homo sapiens, 120 h, Day 5, read-out: Cell Titer-Glo IC50 (5 d)) | IC50 ([1]; Homo sapiens, 240 h, Day 10, read-out: Cell Titer-Glo IC50 (10 d))
COc1ccc(-n2nc(NCC3CCNC3)cc2-c2ccc(C#N)c(F)c2)cc1 (stereo not shown) [Example 8, 2-fluoro-4-(1-(4-methoxyphenyl)-3-((pyrrolidin-3-ylmethyl)amino)-1H-pyrazol-5-yl)benzonitrile] | < 500 nM | < 500 nM | – | – | – | – | –
COC1CCN(c2ccc(-n3nc(NC[C@H]4CCC[C@H](N)C4)cc3-c3ccc(C#N)c(F)c3)cc2)CC1 [Example 43, 4-(3-((((1S,3S)-3-aminocyclohexyl)methyl)amino)-1-(4-(4-methoxypiperidin-1-yl)phenyl)-1H-pyrazol-5-yl)-2-fluorobenzonitrile] | – | < 500 nM | < 500 nM | – | – | – | –
COc1ccc(-n2nc(NC[C@H]3CCC[C@@H](N)C3)cc2-c2ccc(C#N)c(F)c2)cc1 (racemic) [Example 5, rac-4-(3-((((15,3R)-3-aminocyclohexyl)methyl)amino)-1-(4-methoxyphenyl)-1H-pyrazol-5-yl)-2-fluorobenzonitrile] | < 500 nM | < 500 nM | – | – | – | – | –
N#Cc1ccc(-c2cc(NCC3CCCNCC3)nn2-c2ccc(N3CCCC3)cc2)cc1F (stereo not shown) [Example 24, 4-(3-((azepan-4-ylmethyl)amino)-1-(4-(pyrrolidin-1-yl)phenyl)-1H-pyrazol-5-yl)-2-fluorobenzonitrile] | < 500 nM | < 500 nM | < 500 nM | – | – | – | –
COc1ccc(-n2nc(NCC3CC3N)cc2-c2ccc(C#N)c(F)c2)cc1 (racemic) [Example 29, (±)-trans-4-(3-(((2-aminocyclopropyl)methyl)amino)-1-(4-methoxyphenyl)-1H-pyrazol-5-yl)-2-fluorobenzonitrile] | 1000 to 10000 nM | 1000 to 10000 nM | 1000 to 10000 nM | – | – | – | –
N#Cc1ccc(-c2cc(NC[C@H]3CCC[C@H](N)C3)nn2-c2ccc3[nH]ncc3c2)cc1F [Example 65, 4-(3-((((1S,3S)-3-aminocyclohexyl)methyl)amino)-1-(1H-indazol-5-yl)-1H-pyrazol-5-yl)-2-fluorobenzonitrile] | 500 to 1000 nM | < 500 nM | < 500 nM | – | – | – | –
N#Cc1ccc(-c2cc(NC[C@@H]3CCC[C@@H](N)C3)nn2-c2ccc3c(cnn3CCO)c2)cc1F [Example 71, 4-(3-((((1R,3R)-3-aminocyclohexyl)methyl)amino)-1-(1-(2-hydroxyethyl)-1H-indazol-5-yl)-1H-pyrazol-5-yl)-2-fluorobenzonitrile] | < 500 nM | < 500 nM | < 500 nM | – | – | – | –
N#Cc1ccc(-c2cc(NC[C@H]3CCC[C@H](N)C3)nn2-c2cccc(-n3ccnn3)c2)cc1F [Example 62, 4-(1-(3-(1H-1,2,3-triazol-1-yl)phenyl)-3-((((1S,3S)-3-aminocyclohexyl)methyl)amino)-1H-pyrazol-5-yl)-2-fluorobenzonitrile] | 1000 to 10000 nM | 500 to 1000 nM | < 500 nM | – | – | – | –
N#Cc1ccc(-c2cc(NC[C@H]3CCC[C@H](N)C3)nn2-c2cccc(N3CCS(=O)(=O)CC3)c2)cc1F [Example 51, 4-(3-((((1S,3S)-3-aminocyclohexyl)methyl)amino)-1-(3-(1,1-dioxidothiomorpholino)phenyl)-1H-pyrazol-5-yl)-2-fluorobenzonitrile] | 1000 to 10000 nM | 1000 to 10000 nM | < 500 nM | – | – | – | –
Cn1cc(-c2ccc(-n3nc(NC[C@H]4CCC[C@H](N)C4)cc3-c3ccc(C#N)c(F)c3)cc2)cn1 [Example 54, 4-(3-((((1S,3S)-3-aminocyclohexyl)methyl)amino)-1-(4-(1-methyl-1H-pyrazol-4-yl)phenyl)-1H-pyrazol-5-yl)-2-fluorobenzonitrile] | < 500 nM | < 500 nM | < 500 nM | – | – | – | –
COc1ccc(-n2nc(N)cc2-c2ccc(C#N)c(F)c2)cc1 [Example 1, 4-(3-Amino-1-(4-methoxyphenyl)-1H-pyrazol-5-yl)-2-fluorobenzonitrile] | > 10000 nM | > 10000 nM | – | – | – | – | –
N#Cc1ccc(-c2cc(NC[C@H]3CCC[C@H](N)C3)nn2-c2ccncc2)cc1F [Example 17, 4-(3-((((1S,3S)-3-aminocyclohexyl)methyl)amino)-1-(pyridin-4-yl)-1H-pyrazol-5-yl)-2-fluorobenzonitrile] | 1000 to 10000 nM | > 10000 nM | 1000 to 10000 nM | – | – | – | –
Cn1ncc2cc(-n3nc(NCC45CCN(CC4)CC5)cc3-c3ccc(C#N)c(F)c3)ccc21 [Example 23, 2-fluoro-4-(1-(1-methyl-1H-indazol-5-yl)-3-((quinuclidin-4-ylmethyl)amino)-1H-pyrazol-5-yl)benzonitrile] | – | < 500 nM | – | – | – | < 500 nM | < 500 nM
N#Cc1ccc(-c2cc(NCC3CCCNCC3)nn2-c2ccc(N3CCS(=O)(=O)CC3)cc2)cc1F (stereo not shown) [Example 26, 4-(3-((azepan-4-ylmethyl)amino)-1-(4-(1,1-dioxidothiomorpholino)-phenyl)-1H-pyrazol-5-yl)-2-fluorobenzonitrile] | < 500 nM | < 500 nM | < 500 nM | – | – | – | –
N#Cc1ccc(-c2cc(NC[C@H]3CCC[C@H](N)C3)nn2-c2ccc(-c3cnn(CCCO)c3)cc2)cc1F [Example 58, 4-(3-((((1S,3S)-3-aminocyclohexyl)methyl)amino)-1-(4-(1-(3-hydroxypropyl)-1H-pyrazol-4-yl)phenyl)-1H-pyrazol-5-yl)-2-fluorobenzonitrile] | < 500 nM | < 500 nM | < 500 nM | – | – | – | –
COc1ccc(-n2nc(NC[C@H]3CCC[C@@H](CN)C3)cc2-c2ccc(C#N)c(F)c2)cc1 [Example 77, 4-(3-((((1S,3R)-3-(aminomethyl)cyclohexyl)methyl)amino)-1-(4-methoxyphenyl)-1H-pyrazol-5-yl)-2-fluorobenzonitrile] | 1000 to 10000 nM | 1000 to 10000 nM | 1000 to 10000 nM | – | – | – | –

Reference: patent publication US20250032454A1, “KDM1A INHIBITORS FOR THE TREATMENT OF DISEASE” (Imago Biosciences, Inc., priority 2021, published 2025)
